Measured values from patent US20140221340A1 (KYOWA HAKKO KIRIN CO., LTD., priority 2011, published 2014).

Biological target: T1, human CCR10 (Homo sapiens, UniProt P46092)
T1 construct: expressed in transfected cells; host or cells: KJMGER8 cell (cell line derived from Namalwa cell); expression induced with 10 nmol/L β-estradiol
T1 sequence (P46092 1-362): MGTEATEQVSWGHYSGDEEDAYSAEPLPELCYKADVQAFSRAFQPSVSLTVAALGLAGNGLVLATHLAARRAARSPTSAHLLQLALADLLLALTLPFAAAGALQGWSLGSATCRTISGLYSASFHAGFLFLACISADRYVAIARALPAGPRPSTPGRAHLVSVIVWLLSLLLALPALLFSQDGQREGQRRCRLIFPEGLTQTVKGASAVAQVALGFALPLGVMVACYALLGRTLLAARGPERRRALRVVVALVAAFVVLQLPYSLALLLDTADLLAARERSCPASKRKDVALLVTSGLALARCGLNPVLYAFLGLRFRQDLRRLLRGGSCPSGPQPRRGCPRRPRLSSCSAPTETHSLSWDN
Assay: Calcium assay of human CCR10 (inhibition of CTACK-induced increase in intracellular calcium ion concentration in hCCR10G16 cells)
Format: cell-based
Details: test compound 100 nmol/L, human recombinant CTACK, hCCR10G16 cells (KJMGER8/Namalwa-derived, Gα16 co-expressed), FLIPR or FDSS; for inhibition at 0.1 µM: read-out: Inhibitory rate (%) for an increase in calcium ion concentration
Experimental: A CCR10-inducible expression plasmid was produced according to a known method (“Analytical Biochemistry”, 2006, vol. 400, page 163). A DNA encoding human CCR10 was obtained by PCR. Using human chromosomal DNA (100 ng; manufactured by Clontech Laboratories, Inc.) as a template, a synthetic DNA having the sequences shown by SEQ ID NOs: 1 and 2 as a human CCR10 cDNA specific primer, and Pyrobest DNA Polymerase (manufactured by TAKARA SHUZO CO. LTD.) as an enzyme, a DNA encoding human CCR10 was obtained by PCR. As a buffer solution for PCR, the buffer solution attached to the enzyme was diluted 10-fold with deionized water and used. Using Thermal Cycler DNA Engine (manufactured by MJ Research), PCR was performed by 35 cycles of reactions composed of an incubation at 90° C. for 2 min, at 94° C. for 30 seconds, at an anneal temperature of 58° C. for 30 seconds, and at 72° C. for 1 min.
The amplified PCR fragment was cleaved with HindIII and NotI, then a human CCR10 DNA fragment was recovered by an agarose gel electrophoresis method. The fragment was incorporated in between the corresponding restriction enzyme sites (HindIII-NotI) of an inducible expression vector, whereby a human CCR10-inducible expression plasmid were prepared.
Using a primer specific to the sequence of the plasmid (synthetic DNA having the sequences shown by SEQ ID NOs: 3 and 4), the sequence of human CCR10 DNA region was determined. For the determination of the base sequence, DNA sequencer 377 (manufactured by PerkinElmer) and a reaction kit (ABI Prism (registered trade mark) BigDye (registered trade mark) Terminator Cycle Sequencing Ready Reaction kit: manufactured by Applied Biosystems) were used. The sequence of human CCR10 DNA matched with the sequence (NM_016602) registered in GenBank.
Cells for the detection of the signal from human CCR10 by a calcium assay were prepared. Human CCR10-inducible expressing cells whose host cell is KJMGER8 cell (cell line derived from Namalwa cell) were prepared according to a known method (“Analy Biochem”, 2006, vol. 400, page 163). Human CCR10-inducible expression plasmid produced above and Gα16 expression plasmid were co-transfected into KJMGER8 cell by an electroporation method (“Cytotechnology”, 1990, vol. 3, page 133), whereby a signal from human CCR10 could be detected by a calcium assay (hereinafter to be referred to as hCCR10G16 cell). Gα16 expression plasmid was produced by incorporating human Gα16 DNA into expression vector pAMoh (WO03/087366). Induced expression of human CCR10 was performed by cultivating hCCR10G16 cells in the presence of 10 nmol/L β-estradiol (manufactured by Sigma Ltd.) for 24 hr.
Cells expressing human CCR10 induced by the above-mentioned method were suspended in RPMI1640 medium and adjusted to cell density of 1.25×10^6 cells/mL. This mixture was dispensed to a 384 well clear bottom plate (manufactured by Corning Incorporated) at 20 μL/well, and these were incubated at 37° C. for several dozen minutes. A loading buffer prepared according to the protocol attached to FLIPR Calcium 3 assay kit (manufactured by Molecular Device) was dispensed to this plate at 20 μL/well, and the plate was incubated at 37° C. for 60 min. A 33 μmol/L DMSO solution of the test compound was diluted 37-fold with RPMI1640 medium and the resulting solution was added at 5 μL/well, and the mixture was incubated at 37° C. for 30 min. 300 nmol/L human recombinant CTACK (manufactured by R and D Systems) diluted with RPMI1640 medium containing 1 w/v % bovine serum albumin was added at 5 μL/well. Change of the intracellular calcium ion concentration for about 5 min after the addition was measured by FLIPR (manufactured by Molecular Device) or FDSS (manufactured by Hamamatsu Photonics K.K.). The difference between the maximum fluorescence intensity and the minimum fluorescence intensity for 5 min was calculated, and taken as the measurement value (maximum fluorescence intensity−minimum fluorescence intensity). […]

Row | SMILES | inhibition at 0.1 µM [%] | Inhibitory rate (%) for an increase in calcium ion concentration [%]
1 | CCC(=O)NS(=O)(=O)c1cnn2c(Nc3cc(C)c(F)cc3Cl)c(C(=O)N3CCC(c4ccc(F)cc4)CC3)cnc12 [a-40, N-{7-(2-Chloro-4-fluoro-5-methylphenylamino)-6-[4-(4-fluorophenyl)piperidine-1-carbonyl]pyrazolo[1,5-a]pyrimidin-3-ylsulfonyl}propionamide] | > 100 | –
2 | Cc1cc(Nc2c(C(=O)N3CCC(c4ccc(F)cc4)CC3)cnc3c(S(=O)(=O)NC(=O)C4CC4)cnn23)c(Cl)cc1F [a-41, N-{7-(2-Chloro-4-fluoro-5-methylphenylamino)-6-[4-(4-fluorophenyl)piperidine-1-carbonyl]pyrazolo[1,5-a]pyrimidin-3-ylsulfonyl}cyclopropanecarboxamide] | > 100 | –
3 | CCNC(=O)NS(=O)(=O)c1cnn2c(Nc3cc(C)c(F)cc3Cl)c(C(=O)N3CCC(c4ccc(F)cc4)CC3)cnc12 [a-42, 7-(2-Chloro-4-fluoro-5-methylphenylamino)-N-(ethylcarbamoyl)-6-[4-(4-fluorophenyl)piperidine-1-carbonyl]pyrazolo[1,5-a]pyrimidine-3-sulfonamide] | > 100 | –
4 | CCNC(=O)NS(=O)(=O)c1cnn2c(Nc3ccc(F)cc3C)c(C(=O)N3CCC4(CC3)OCc3ccccc34)cnc12 [a-43, 7-(4-Fluoro-2-methylphenylamino)-N-(ethylcarbamoyl)-6-[3H-spiro(isobenzofuran-1,4′-piperidine)-1′-carbonyl]pyrazolo[1,5-a]pyrimidine-3-sulfonamide] | 92 | –
5 | CCNC(=O)NS(=O)(=O)c1cnn2c(Nc3cc(C)ccc3Cl)c(C(=O)N3CCC4(CC3)OCc3ccccc34)cnc12 [a-44, 7-(2-Chloro-5-methylphenylamino)-N-(ethylcarbamoyl)-6-[3H-spiro(isobenzofuran-1,4′-piperidine)-1′-carbonyl]pyrazolo[1,5-a]pyrimidine-3-sulfonamide] | 95.2 | –
6 | CCNS(=O)(=O)c1cnn2c(Nc3cc(C)ccc3Cl)c(C(=O)N3CCC4(CC3)OCc3ccccc34)cnc12 [a-45, N-Ethyl-7-(2-chloro-5-methylphenylamino)-6-[3H-spiro(isobenzofuran-1,4′-piperidine)-1′-carbonyl]pyrazolo[1,5-a]pyrimidine-3-sulfonamide] | 80.3 | –
7 | Cc1cc(Cl)ccc1Nc1c(C(=O)N2CCC3(CC2)OCc2ccccc23)cnc2c(S(=O)(=O)NC(=O)C3CC3)cnn12 [a-46] | – | >100
8 | CCNC(=O)NS(=O)(=O)c1cnn2c(Nc3ccc(Cl)cc3C)c(C(=O)N3CCC4(CC3)OCc3ccccc34)cnc12 [a-47, 7-(4-Chloro-2-methylphenylamino)-N-(ethylcarbamoyl)-6-[3H-spiro(isobenzofuran-1,4′-piperidine)-1′-carbonyl]pyrazolo[1,5-a]pyrimidine-3-sulfonamide] | > 100 | –
9 | CCC(=O)NS(=O)(=O)c1cnn2c(Nc3ccc(C)cc3F)c(C(=O)N3CCC4(CC3)OCc3ccccc34)cnc12 [a-48, N-{7-(2-Fluoro-4-methylphenylamino)-6-[3H-spiro(isobenzofuran-1,4′-piperidine)-1′-carbonyl]pyrazolo[1,5-a]pyrimidin-3-ylsulfonyl}propionamide] | > 100 | –
10 | Cc1ccc(F)c(Nc2c(C(=O)N3CCC4(CC3)OCc3ccccc34)cnc3c(S(=O)(=O)NC(=O)C4CC4)cnn23)c1 [a-52] | – | >100

Now from value to molecule, other results behind:

Row | inhibition at 0.1 µM [%] | SMILES | Inhibitory rate (%) for an increase in calcium ion concentration [%]
11 | > 100 | CCNC(=O)NS(=O)(=O)c1cnn2c(Nc3ccc(C)cc3F)c(C(=O)N3CCC4(CC3)OCc3ccccc34)cnc12 [a-49, 7-(2-Fluoro-4-methylphenylamino)-N-(ethylcarbamoyl)-6-[3H-spiro(isobenzofuran-1,4′-piperidine)-1′-carbonyl]pyrazolo[1,5-a]pyrimidine-3-sulfonamide] | –
12 | > 100 | CCC(=O)NS(=O)(=O)c1cnn2c(Nc3ccc(F)cc3Cl)c(C(=O)N3CCC4(CC3)OCc3ccccc34)cnc12 [a-50, N-{7-(2-Chloro-4-fluorophenylamino)-6-[3H-spiro(isobenzofuran-1,4′-piperidine)-1′-carbonyl]pyrazolo[1,5-a]pyrimidin-3-ylsulfonyl}propionamide] | –
13 | > 100 | CCC(=O)NS(=O)(=O)c1cnn2c(Nc3cc(C)ccc3F)c(C(=O)N3CCC4(CC3)OCc3ccccc34)cnc12 [a-51, N-{7-(2-Fluoro-5-methylphenylamino)-6-[3H-spiro(isobenzofuran-1,4′-piperidine)-1′-carbonyl]pyrazolo[1,5-a]pyrimidin-3-ylsulfonyl}propionamide] | –
14 | > 100 | CCC(=O)NS(=O)(=O)c1cnn2c(Nc3cc(Cl)ccc3Cl)c(C(=O)N3CCC4(CC3)OCc3ccccc34)cnc12 [a-53, N-{7-(2,5-Dichlorophenylamino)-6-[3H-spiro(isobenzofuran-1,4′-piperidine)-1′-carbonyl]pyrazolo[1,5-a]pyrimidin-3-ylsulfonyl}propionamide] | –
15 | > 100 | O=C(NS(=O)(=O)c1cnn2c(Nc3cc(Cl)ccc3Cl)c(C(=O)N3CCC4(CC3)OCc3ccccc34)cnc12)C1CC1 [a-54, N-{7-(2,5-Dichlorophenylamino)-6-[3H-spiro(isobenzofuran-1,4′-piperidine)-1′-carbonyl]pyrazolo[1,5-a]pyrimidin-3-ylsulfonyl}cyclopropanecarboxamide] | –
16 | > 100 | CC(=O)NS(=O)(=O)c1cnn2c(Nc3cc(C)ccc3Cl)c(C(=O)N3CCC4(CC3)OCc3ccccc34)cnc12 [a-55, N-{7-(2-Chloro-5-methylphenylamino)-6-[3H-spiro(isobenzofuran-1,4′-piperidine)-1′-carbonyl]pyrazolo[1,5-a]pyrimidin-3-ylsulfonyl}acetamide] | –
17 | > 100 | CCC(=O)NS(=O)(=O)c1cnn2c(Nc3cc(C)ccc3Cl)c(C(=O)N3CCC4(CC3)OCc3ccccc34)cnc12 [a-56, N-{7-(2-Chloro-5-methylphenylamino)-6-[3H-spiro(isobenzofuran-1,4′-piperidine)-1′-carbonyl]pyrazolo[1,5-a]pyrimidin-3-ylsulfonyl}propionamide] | –
18 | > 100 | Cc1ccc(Cl)c(Nc2c(C(=O)N3CCC4(CC3)OCc3ccccc34)cnc3c(S(=O)(=O)NC(=O)C4CCC4)cnn23)c1 [a-57, N-{7-(2-Chloro-5-methylphenylamino)-6-[3H-spiro(isobenzofuran-1,4′-piperidine)-1′-carbonyl]pyrazolo[1,5-a]pyrimidin-3-ylsulfonyl}cyclobutanecarboxamide] | –
